Measurements from patent US20050171084A1, “Methods of treatment with lxr modulators” (priority 2002, published 2005).

Legend:
[1] = system: Murine astroglia; test: Cholesterol efflux from astrocytes; assay type: cell-based, mouse; settings: basal efflux, standard deviation in parentheses, * p<0.05
Experimental: Murine astroglia were obtained from postnatal day 1 pups. Briefly, pups were decapitated, their brains removed, and the cerebral cortices prepared as described previously (45), except that astrocyte plating media was used (Dulbecco's modified eagle media [DMEM] containing 4 mg/ml glucose, 5% FBS and 5% HS [GibcoBRL or Irvine Scientific], 100 U/ml penecillin/100 μg/ml streptomycin, 25 mM HEPES, and 2-4 mM glutamine). Glia were grown in T75 flasks at a density of approximately 2 brains per flask. Cells were fed once weekly by complete media exchange in maintenance media (DMEM containing 4.5 mg/ml glucose, 10% FBS, 100 U/ml penecillin/100 μg/ml streptomycin, 25 mM HEPES, and 6 mM glutamine). By visual inspection, these cultures were nearly entirely astroglial with <1% contamination with microglia. After 7-14 days in vitro, cells were collected by trypsinization, counted in a hemacytometer, and plated into 6-well plates at 50-100,000 cells per well in maintenance media. […]
Cholesterol efflux assays were performed as described elsewhere (24) with some modifications. […] Two hundred microliters of the culture media supernatant and 200 μl of the cell extract were counted for tritium in 2 ml Packard Ultima Gold Scint. […] Efflux is expressed as percent of the total radiolabeled cholesterol pool present in the cultures.

[2] = system: ABCA1; test: ABCA1 gene expression in primary astrocyte cultures (QRT-PCR); assay type: cell-based, mouse; settings: Astrocytes
Experimental: (§1) Total RNA was isolated from tissue and cell culture samples using TRIzol reagent (GibcoBRL). Briefly, tissue samples were thawed directly in 1 ml Trizol/50 mg tissue and homogenized with a polytron. To facilitate recovery of nucleic acid, 100 μg glycogen (Ambion) was added. Cultured cells were lysed in 1 ml Trizol containing 100 μg glycogen per well. Samples were then extracted in chloroform and spun at 4° C. at 11,000×g for 15 min. The aqueous phase was collected and the RNA was precipitated with the addition of isopropanol. The samples were then spun at 11,000×g at 4° C. for 15 min, the pellet washed in 75% ethanol, dried, and dissolved in water. Samples were stored at −70° C. until use.
(§2) Total RNA samples were diluted to 100 μg/ml and treated with 40 units/ml […] DNAse-I (Ambion) for 30 min at 37° C. followed by inactivation at 75° C. for 5 min. Samples were quantitated by spectrophotometry or with the RiboGreen assay (Molecular Probes) and diluted to a concentration of 10 ng/μl. […] In this system, the probe is degraded by Taq polymerase during the amplification phase, releasing the fluorescent tag from its quenched state; amplification data is expressed as the number of PCR cycles required to elevate the fluorescence signal beyond a threshold intensity level. […]

[3] = system: ABCA1; test: ABCA1 gene expression in primary neuron cultures (QRT-PCR); assay type: cell-based, mouse; settings: Neurons
Experimental: as §1, §2

[4] = system: ABCG1; test: ABCG1 gene expression in primary neuron cultures (QRT-PCR); assay type: cell-based, mouse; settings: Neurons
Experimental: as §1, §2

[5] = system: SREBP-1c; test: SREBP-1c gene expression in primary astrocyte cultures (QRT-PCR); assay type: cell-based, mouse; settings: Astrocytes
Experimental: as §1, §2

[6] = system: SREBP-1c; test: SREBP-1c gene expression in primary neuron cultures (QRT-PCR); assay type: cell-based, mouse; settings: Neurons
Experimental: as §1, §2

[7] = system: ABCG1; test: ABCG1 gene expression in the CNS after oral dosing; assay type: in vivo, C57 B1/6 mice; settings: oral gavage, Example 1 10 mg kg twice daily, T0901317 50 mg/kg once daily
Experimental: as §1
(§3) Total RNA samples were diluted to 100 μg/ml and treated with 40 units/ml […] DNAse-I (Ambion) for 30 min at 37° C. followed by inactivation at 75° C. for 5 min. Samples were quantitated by spectrophotometry or with the RiboGreen assay (Molecular Probes) and diluted to a concentration of 10 ng/μl. Samples were then assayed in duplicate or triplicate 25-μl reactions using 25 ng RNA per reaction with Perkin Elmer chemistry on an ABI Prism 7700 (Perkin Elmer) according to manufacturer's instructions. Gene-specific primers were used at 7.5 or 22.5 pmol per reaction, optimized for each gene examined, and the gene-specific probe was used at 5 pmol per reaction. Primers and probe were synthesized by Keystone Labs (Camarillo, Calif.). In this system, the probe is degraded by Taq polymerase during the amplification phase, releasing the fluorescent tag from its quenched state; amplification data is expressed as the number of PCR cycles required to elevate the fluorescence signal beyond a threshold intensity level. Fold induction values were calculated by subtracting the mean threshold cycle number (Ct) for each treatment group from the mean Ct for the vehicle group and raising 2 to the power of this difference.
(§4) Adult male C57 B1/6 mice (3 per group) were dosed by oral gavage with the LXR agonists Example 1, T0901317, or vehicle (0.5% methylcellulose). Example 1 was delivered at 10 mg kg twice daily, while T0901317 was administered at 50 mg/kg once daily. After 3 or 7 days' treatment, animals were killed and their brains removed. The cerebellum and both hippocampi were dissected and snap frozen in liquid nitrogen for RNA isolation. Total RNA was prepared from the hippocampus and cerebellum (black bars) and analyzed for gene expression patterns using QRT-PCR (as described above). Expression levels for each gene in each tissue were normalized to the average expression level in the vehicle group. Both LXR agonists enhanced ABCA1 expression relative to the vehicle-treated group, with the effect most pronounced in the cerebellum after 3 days' treatment.

[8] = system: SREBP-1c; test: SREBP-1c gene expression in the CNS after oral dosing; assay type: in vivo, C57 B1/6 mice; settings: oral gavage, Example 1 10 mg kg twice daily, T0901317 50 mg/kg once daily
Experimental: as §1, §3, §4

SMILES | Cholesterol efflux as a percentage of total [3H] cholesterol [1] | ABCA1 expression normalized to vehicle-treated group (fold induction) [2] | ABCA1 expression normalized to vehicle-treated group (fold induction) [3] | ABCG1 expression normalized to vehicle-treated group (fold induction) [4] | SREBP-1c expression normalized to vehicle-treated group (fold induction) [5] | SREBP-1c expression normalized to vehicle-treated group (fold induction) [6] | ABCG1 expression normalized to vehicle group ([7]; CB (cerebellum), first table) | ABCG1 expression normalized to vehicle group ([7]; CB (cerebellum), second table) | ABCG1 expression normalized to vehicle group ([7]; HC (hippocampus), first table) | ABCG1 expression normalized to vehicle group ([7]; HC (hippocampus), second table) | SREBP-1c expression normalized to vehicle group ([8]; CB (cerebellum), first table) | SREBP-1c expression normalized to vehicle group ([8]; CB (cerebellum), second table) | SREBP-1c expression normalized to vehicle group ([8]; HC (hippocampus), first table) | SREBP-1c expression normalized to vehicle group ([8]; HC (hippocampus), second table)
O=C(O)Cc1cccc(OCCCN(Cc2cccc(C(F)(F)F)c2Cl)CC(c2ccccc2)c2ccccc2)c1 [Example 1, 2-(3-{3-[[2-Chloro-3-(trifluoromethyl)benzyl](2,2-diphenylethyl)amino]propoxy}-phenyl)acetic Acid] | 4.722 (0.783)* % | 11.8 | 2.8 | 2.8 | 13.9 | 3.1 | 1.52 (0.073) | 1.17 (0.142) | 1.14 (0.212) | 0.89 (0.045) | 2.05 (0.427) | 1.75 (0.236) | 2.22 (0.600) | 0.71 (0.327)
O=S(=O)(c1ccccc1)N(CC(F)(F)F)c1ccc(C(O)(C(F)(F)F)C(F)(F)F)cc1 [Example T0901317, N-(2,2,2-trifluoroethyl)-N-[4-(2,2,2-trifluoro-1-hydroxy-1-trifluoromethyl-ethyl)-phenyl]-benzenesulfonamide] | 4.370 (0.561)* % | 18.4 | 3.0 | 3.1 | 20.2 | 3.1 | 2.31 (0.081) | 1.80 (0.116) | 1.22 (0.098) | 1.37 (0.092) | 3.44 (0.632) | 2.97 (0.557) | 2.68 (0.209) | 2.16 (0.110)
